Laboratory results taken from PMC10130856 (Heliyon, 2023).

Molecular target: hen egg-white lysozyme (HEWL) (Gallus gallus, UniProt P00698)
Assay: intrinsic tryptophan fluorescence quenching
Type: binding
Conditions: pH 7.4, 20 mM sodium phosphate, 298.15 K, 5 μM protein; double-log

Chain of hen egg-white lysozyme (HEWL) (P00698 19-147): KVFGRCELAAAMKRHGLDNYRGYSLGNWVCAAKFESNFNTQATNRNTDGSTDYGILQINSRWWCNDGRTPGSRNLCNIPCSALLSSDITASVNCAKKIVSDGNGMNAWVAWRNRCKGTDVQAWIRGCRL

Kb(M^-1): 2.96 × 10^8±0.21 M^−1
SMILES: CCCCC(=O)N(Cc1ccc(-c2ccccc2-c2nn[nH]n2)cc1)[C@H](C(=O)O)C(C)C [valsartan]
